Molecular target: T1, RNase L (Homo sapiens, UniProt Q05823)
T1 sequence (Q05823 1-741): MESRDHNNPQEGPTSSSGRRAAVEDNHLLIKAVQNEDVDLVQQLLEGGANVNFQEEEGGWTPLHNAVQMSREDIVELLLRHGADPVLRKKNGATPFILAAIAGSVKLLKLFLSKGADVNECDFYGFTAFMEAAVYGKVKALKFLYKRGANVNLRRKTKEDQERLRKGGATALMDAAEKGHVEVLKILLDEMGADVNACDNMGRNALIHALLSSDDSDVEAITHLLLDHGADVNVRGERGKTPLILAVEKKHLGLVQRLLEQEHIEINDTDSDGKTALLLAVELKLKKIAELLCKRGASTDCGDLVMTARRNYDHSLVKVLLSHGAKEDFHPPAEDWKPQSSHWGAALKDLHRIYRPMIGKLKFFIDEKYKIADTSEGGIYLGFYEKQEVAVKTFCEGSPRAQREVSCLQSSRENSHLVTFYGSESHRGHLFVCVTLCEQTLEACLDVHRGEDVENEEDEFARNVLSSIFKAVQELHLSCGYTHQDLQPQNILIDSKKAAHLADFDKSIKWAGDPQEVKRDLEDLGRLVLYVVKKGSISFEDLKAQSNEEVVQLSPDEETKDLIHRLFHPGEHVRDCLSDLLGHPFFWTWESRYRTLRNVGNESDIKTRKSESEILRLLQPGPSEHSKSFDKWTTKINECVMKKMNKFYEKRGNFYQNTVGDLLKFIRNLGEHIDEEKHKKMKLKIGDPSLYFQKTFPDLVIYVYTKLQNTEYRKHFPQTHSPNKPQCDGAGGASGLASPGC
Assay: FRET RNA cleavage assay
Assay type: biochemical

IC50: ~30 µM
Compound: COc1cc(/C=C/C(=O)CC(=O)/C=C/c2ccc(O)c(OC)c2)ccc1O [curcumin]

Source: article PMC6326797 (Nucleic Acids Research, 2018)
